Like-named read-outs stand apart in the source and are kept apart here. Values belong to the compound of their own block, whether it stands above or below them.
Legend:
[1] = target: T1, FXR-LBD protein (residues 244–472) (Homo sapiens, UniProt Q96RI1)
T1 sequence (Q96RI1 244-472 isoform Q96RI1-2): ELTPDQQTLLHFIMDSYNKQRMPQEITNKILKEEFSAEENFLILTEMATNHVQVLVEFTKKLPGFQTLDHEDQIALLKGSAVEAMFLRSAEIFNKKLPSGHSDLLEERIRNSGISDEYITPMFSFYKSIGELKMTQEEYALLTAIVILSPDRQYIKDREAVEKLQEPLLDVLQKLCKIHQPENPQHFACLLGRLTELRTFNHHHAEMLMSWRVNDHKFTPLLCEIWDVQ
Text: The thermal shift method is widely used to assess ligand binding. A thermal shift assay usually measures the melting temperature of a protein with or without a ligand by monitoring a fluorescent dye. In an aqueous solution of folded protein the dye signal is low due to quenching of the dye fluorescence in water, but with increasing temperature the protein unfolds and exposes its hydrophobic core regions. The fluorescent dye is then bound to the hydrophobic surfaces and fluorescence increases.
Thermal Shift assay was performed in clear 96-well plates (Invitrogen) using SYPRO Orange (Invitrogen Darmstadt, Germany) as dye. […] Temperature-dependent fluorescence increase reporting protein denaturation was measured in duplicates in an ICycler (Bio-Rad) from 20 to 90 °C in steps of 0.2 °C per minute at […] and 570 nm emission wavelength. Each experiment was independently repeated four times. The first derivative of the melting curves was calculated using the Graph Pad Prism 5 software.

[2] = target: T2, fusion receptor of the FXR ligand binding domain and a Gal4 DNA binding domain (Homo sapiens, UniProt Q96RI1)
T2 sequence (Q96RI1 262-486 limits assumed): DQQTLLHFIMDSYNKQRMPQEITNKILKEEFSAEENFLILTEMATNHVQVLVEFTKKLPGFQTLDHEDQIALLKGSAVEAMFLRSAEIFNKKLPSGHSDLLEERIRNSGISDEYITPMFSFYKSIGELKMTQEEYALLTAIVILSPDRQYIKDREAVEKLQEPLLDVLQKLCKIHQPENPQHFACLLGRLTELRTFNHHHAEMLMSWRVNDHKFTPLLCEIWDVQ
Procedure: Luminescence was measured with an Infinite M200 luminometer (Tecan Deutschland GmbH). […] Fold activation was obtained by dividing the mean RLU of a test compound at a respective concentration by the mean RLU of untreated control.

FXR = target: T3, FXR (Homo sapiens, UniProt Q96RI1); assay: Full-length FXR reporter gene assay in HeLa cells (BSEP promotor, RXRα); format: cell-based
T3 construct: is based on the complete FXR receptor (CMV promoter); expressed in transfected cells; host or cells: HeLa
T3 sequence (Q96RI1 1-486): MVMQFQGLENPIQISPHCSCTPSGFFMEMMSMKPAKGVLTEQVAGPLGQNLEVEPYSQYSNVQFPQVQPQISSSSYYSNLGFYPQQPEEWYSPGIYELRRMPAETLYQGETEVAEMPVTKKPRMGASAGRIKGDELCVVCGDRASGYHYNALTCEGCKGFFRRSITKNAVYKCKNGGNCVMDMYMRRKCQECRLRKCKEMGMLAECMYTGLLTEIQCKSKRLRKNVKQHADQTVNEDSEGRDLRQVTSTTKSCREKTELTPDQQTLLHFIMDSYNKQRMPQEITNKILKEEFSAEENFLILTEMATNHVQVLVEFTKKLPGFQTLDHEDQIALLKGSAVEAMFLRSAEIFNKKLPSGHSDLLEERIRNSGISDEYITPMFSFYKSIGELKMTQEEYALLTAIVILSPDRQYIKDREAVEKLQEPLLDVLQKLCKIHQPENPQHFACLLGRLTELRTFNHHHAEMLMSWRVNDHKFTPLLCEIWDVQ
T3 sequence (P19793 1-462 partner): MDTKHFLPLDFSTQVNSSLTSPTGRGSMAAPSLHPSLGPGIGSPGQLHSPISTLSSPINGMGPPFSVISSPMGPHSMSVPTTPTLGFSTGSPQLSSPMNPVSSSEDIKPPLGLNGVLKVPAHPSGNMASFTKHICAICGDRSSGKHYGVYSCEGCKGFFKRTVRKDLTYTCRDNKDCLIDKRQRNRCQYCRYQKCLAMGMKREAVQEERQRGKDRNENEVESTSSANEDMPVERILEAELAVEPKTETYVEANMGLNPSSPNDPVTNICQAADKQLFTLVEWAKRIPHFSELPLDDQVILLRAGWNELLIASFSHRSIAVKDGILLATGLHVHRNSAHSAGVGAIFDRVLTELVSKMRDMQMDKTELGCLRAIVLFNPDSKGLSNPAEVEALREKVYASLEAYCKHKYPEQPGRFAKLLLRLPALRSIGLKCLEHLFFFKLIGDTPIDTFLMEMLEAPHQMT
Procedure: Luminescence was measured with a Tecan Infinite M200 luminometer (Tecan Deutschland GmbH, Crailsheim, Germany). […] Fold activation was obtained by dividing the mean RLU of the tested compound at a respective concentration by the mean RLU of untreated control.

[3] = Cell proliferation assay (WST-1) in HepG2 cells; conditions: human, HepG2 cells
Procedure: (§1) WST-1 assay (Roche Diagnostics International AG, Rotkreuz, Switzerland) was performed according to manufacturer’s protocol. In brief, HepG2 cells were seeded in DMEM high glucose, supplemented with sodium pyruvate (1 mM), penicillin (100 U/mL), streptomycin (100 μg/mL) and 10% FCS in 96-well plates (3 · 10^4 cells/well). HEK293T cells were seeded in DMEM high glucose, supplemented with sodium pyruvate (1 mM), penicillin (100 U/mL), streptomycin (100 μg/mL) and 10% FCS in 96-well plates (2,5 · 10^4 cells/well). After 24 h, medium was changed to DMEM high glucose, supplemented with penicillin (100 U/mL), streptomycin (100 μg/mL) and 1% charcoal stripped FCS and cells were incubated with varying concentrations of test compounds, Revlotron (100 μM) as positive control and DMEM/0,1% DMSO as negative control. […] […] After 45 min incubation, absorption (450 nm/reference: 620 nm) was determined with a Tecan Infinite M200 luminometer (Tecan Deutschland GmbH). Each experiment was repeated at least four times in triplicates.

HepG2 cells = assay: Cell proliferation assay (WST-1) in HepG2 cells; conditions: for effect on cell viability: 6 hours, 25 μM NSAID and CDCA (50 μM); for concentrations that are considerably toxic: summing up of the WST-1 toxicity data (HepG2 and HEK293T); for no toxic effect on cell viability up to (concentration): 6 hours incubation, alone or in combination with CDCA (50 μM)
Procedure: as §1

HEK293T cells = assay: Cell proliferation assay (WST-1) in HEK293T cells; format: cell-based; conditions: for anti-proliferative effect in combination with CDCA: 24 h, NSAIDs 5, 25, 50 μM combined with CDCA (50 μM); for toxicity compared with HepG2 cells: 48 h
Procedure: as §1

[4] = tested on: bile salt export protein (BSEP) mRNA
Procedure: (§2) Quantification of the expression of FXR target genes in non-transfected cells offers the least artificial way to characterize the activity of a FXR ligand in vitro. […] As investigated genes we selected the direct FXR target genes bile salt export protein (BSEP) and small hetero-dimer partner (SHP) which allows a specific conclusion whether a FXR-dependent effect is present. […] We then quantified the mRNA of FXR target genes BSEP and SHP by qRT-PCR.
(§3) HepG2 cells were seeded in DMEM high glucose, supplemented with 10% FCS, SP (1 mM), penicillin (100 U/mL) and streptomycin (100 μg/mL) at 37 °C and 5% CO2 in 6-well plates (2 · 10^6 per well). 24 h after seeding, medium was changed to MEM, supplemented with 1% charcoal-stripped FCS, penicillin (100 U/mL), streptomycin (100 μg/mL) and L-glutamine (2 mM). After additional 24 h, medium was changed again to MEM, now additionally containing 0.1% DMSO and the respective test compounds or 0.1% DMSO alone as untreated control. Cells were incubated with the test compounds for 6 h, harvested, washed with cold phosphate buffered saline (PBS) and then directly used for RNA extraction.
Total RNA was extracted from HepG2 cells by the Total RNA Mini Kit (R6834-02, Omega Bio-Tek, Inc., Norcross, GA, USA). RNA was reverse-transcribed into cDNA using the High-Capacity cDNA Reverse Transcription Kit (4368814, Thermo Fischer Scientific, Inc., Waltham, MA, USA) with 2 μg RNA according to the manufacturer’s protocol.
FXR target gene expression was evaluated by quantitative PCR analysis with a StepOnePlusTM System (Life Technologies) using PowerSYBRGreen (Life Technologies; 12.5 μL per well) and the following primers[17] (300 nM each): SHP: 5′-[…] (forward) and 5′-[…] (reverse); BSEP: 5′-[…] (forward) and 5′-[…] (reverse). Results were normalized to GAPDH Ct values. Sequences of the GAPDH primers were as follows: 5′-[…] (forward) and 5′- […] (reverse). Each sample was set up in duplicates and repeated in at least four independent experiments. The expression was quantified by the comparative ΔΔCt method.

[5] = tested on: small hetero-dimer partner (SHP) mRNA; assay: FXR target gene quantification by qRT-PCR in HepG2 cells: SHP; format: cell-based
Procedure: as §2
as §3, with “extraction. […]” for “extraction.”
FXR target gene expression was evaluated by quantitative PCR analysis with a StepOnePlusTM System (Life Technologies) using PowerSYBRGreen (Life Technologies; 12.5 μL per well) and the following primers[17] […] The expression was quantified by the comparative ΔΔCt method.

CYP7A1 mRNA = tested on: CYP7A1 mRNA; design: method as in PMID 25631039; conditions: HepG2 cells, with 50 μM CDCA; cited from earlier work
[6] = 10 or 30 μM in competition with GW4064 (3 μM), OCA (3 μM) and CDCA (20 μM)

concentrations that robustly stabilize the FXR-LBD ([1]; 5 μM FXR-LBD, ratio to protein ≥20:1): ≥ 100 µM
Compound: CC(C)c1onc(-c2c(Cl)cccc2Cl)c1COc1ccc(/C=C/c2cccc(C(=O)O)c2)c(Cl)c1 [GW4064]

agonistic activity ([2]; 10 or 30 μM alone): None
competitive antagonistic activity [2, 6]: None
stabilization of the FXR-LBD ([1]; 500 μM alone, ratio to protein 100:1): did not stabilize the FXR-LBD
antagonism of the stabilization of the FXR-LBD by GW4064 ([1]; 500 μM in competition with GW4064 (100 μM, ratio 20:1)): did not antagonize the stabilization
Compound: O=C(O)Cc1ccccc1Nc1c(Cl)cccc1Cl [diclofenac, diclofenac sodium]
activity of the control gene (renilla luciferase) [2]: toxicity driven decrease
agonistic activity (FXR; 10 or 30 μM alone): None
competitive antagonistic activity (FXR; [6]): None
viability at 6 h, 30 μM [3]: 85 ± 2%
viability at 6 h, 50 μM [3]: 75 ± 2%
effect on cell viability (HepG2 cells; HepG2 cells): did not affect cell viability
concentrations with anti-proliferative activity / slight toxicity (HepG2 cells; HepG2 cells, 48 h): ≥ 10 µM
concentrations that are considerably toxic (HepG2 cells): ≥ 30 µM
anti-proliferative effect in combination with CDCA (HEK293T cells): considerable anti-proliferative effects
toxicity compared with HepG2 cells (HEK293T cells): even higher toxicity
effect on BSEP expression [4]: did not affect the expression
antagonistic effect on SHP expression ([5]; 25 μM and 50 μM in competition with CDCA (50 μM), 6 h): did not observe any antagonistic effect
effect on SHP expression ([5]; 50 μM alone, 6 h incubation): did not affect the expression

Compound: CC(C)Cc1ccc(C(C)C(=O)O)cc1 (centres unmarked) [ibuprofen]
no toxic effect on cell viability up to (concentration) (HepG2 cells; HepG2 cells): up to 100 μM
effect on cell viability (HepG2 cells; HepG2 cells): did not affect cell viability
no toxicity up to (concentration) (HepG2 cells; HepG2 cells, 48 h): up to 50 μM
anti-proliferative effect in combination with CDCA (HEK293T cells): considerable anti-proliferative effects
induction of CYP7A1 expression (increase in mRNA levels) (CYP7A1 mRNA): 1.7 fold

Compound: COc1ccc2c(c1)c(CC(=O)O)c(C)n2C(=O)c1ccc(Cl)cc1 [indometacin]
no toxic effect on cell viability up to (concentration) (HepG2 cells; HepG2 cells): up to 50 μM
effect on cell viability (HepG2 cells; HepG2 cells): did not affect cell viability
concentrations with anti-proliferative activity / slight toxicity (HepG2 cells; human, 48 h): ≥ 10 µM
concentrations that are considerably toxic (HepG2 cells): ≥ 30 µM
anti-proliferative effect in combination with CDCA (HEK293T cells): considerable anti-proliferative effects
toxicity compared with HepG2 cells (HEK293T cells): even higher toxicity
antagonistic effect on BSEP expression ([4]; HepG2 cells, 25 μM and 50 μM in competition with CDCA (50 μM), 6 h): did not observe any antagonistic effect
effect on BSEP expression ([4]; HepG2 cells, 50 μM alone, 6 h incubation): did not affect the expression
induction of CYP7A1 expression (increase in mRNA levels) (CYP7A1 mRNA): 9 fold

— PMC4589779 (Scientific Reports, 2015)
